Reference: patent publication US20230167073A1 (Teijin Pharma Limited, priority 2020, published 2023)

Target: T1, Human TRPC6 (Homo sapiens, UniProt Q9Y210)
T1 construct: expressed in transfected cells
T1 sequence (Q9Y210 1-931): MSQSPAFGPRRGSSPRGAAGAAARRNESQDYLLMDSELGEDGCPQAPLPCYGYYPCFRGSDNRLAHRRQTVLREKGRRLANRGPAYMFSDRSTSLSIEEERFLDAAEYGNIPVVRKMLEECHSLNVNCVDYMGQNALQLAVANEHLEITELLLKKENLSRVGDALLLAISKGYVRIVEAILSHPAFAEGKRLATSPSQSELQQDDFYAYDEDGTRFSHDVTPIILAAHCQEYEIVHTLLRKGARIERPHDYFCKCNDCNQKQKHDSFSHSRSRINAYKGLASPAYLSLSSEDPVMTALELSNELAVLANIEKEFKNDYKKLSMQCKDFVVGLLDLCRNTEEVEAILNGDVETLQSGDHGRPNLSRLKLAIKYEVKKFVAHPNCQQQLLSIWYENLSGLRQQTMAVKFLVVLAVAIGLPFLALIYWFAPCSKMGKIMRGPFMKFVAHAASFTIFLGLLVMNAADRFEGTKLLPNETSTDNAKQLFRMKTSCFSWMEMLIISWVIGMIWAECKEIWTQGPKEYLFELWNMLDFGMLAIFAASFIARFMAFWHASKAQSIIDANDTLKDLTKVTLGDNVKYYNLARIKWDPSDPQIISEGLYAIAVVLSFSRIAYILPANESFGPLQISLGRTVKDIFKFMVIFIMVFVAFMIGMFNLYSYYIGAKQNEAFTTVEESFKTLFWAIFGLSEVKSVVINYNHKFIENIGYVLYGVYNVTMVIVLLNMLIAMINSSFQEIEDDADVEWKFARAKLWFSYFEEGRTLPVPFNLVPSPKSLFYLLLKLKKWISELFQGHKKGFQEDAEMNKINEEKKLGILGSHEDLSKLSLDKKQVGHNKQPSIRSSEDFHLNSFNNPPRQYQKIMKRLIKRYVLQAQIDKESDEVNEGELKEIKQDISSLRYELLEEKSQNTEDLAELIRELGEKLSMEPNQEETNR
Assay: Evaluation of TRPC6 channel inhibitory activity (1), FLIPR Calcium 5 Assay Kit, OAG stimulation (Compound Nos. 1-1293)
Assay type: cell-based
Conditions: Human TRPC6 stably-expressing cells, OAG 30 μM, FLIPR Calcium 5 Assay Kit; read-out: Inhibitory activity (pIC50 class) (converted)
Procedure, shortened: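 Calcium influx read by FLIPR fluorescence in cells stably expressing human TRPC6, dye-loaded 30 min. Compounds preincubated 20 min, then OAG stimulation at 30 μM final. Inhibition fitted by four-parameter logistic regression to give pIC50, reported as +/++/+++ categories.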

Row | SMILES | IC50 [nM]
1 | Cn1nc(C2CC2)cc1Oc1cc(C#N)ccc1-n1cc2c(n1)CCNC2 [compound 776, 3-(5-cyclopropyl-2-methylpyrazol-3-yl)oxy-4-(4,5,6,7-tetrahydropyrazolo[4,3-c]pyridin-2-yl)benzonitrile] | > 1000
2 | Cn1nc(C2CC2)cc1Oc1cc(C#N)ccc1-n1ncc2c1CCNC2 [compound 777, 3-(5-cyclopropyl-2-methylpyrazol-3-yl)oxy-4-(4,5,6,7-tetrahydropyrazolo[4,3-c]pyridin-1-yl)benzonitrile] | > 1000
3 | Cn1nc(C2CC2)cc1Oc1cc(C#N)ccc1-c1ccc(CN2CCNCC2=O)cn1 [compound 778, 3-(5-cyclopropyl-2-methylpyrazol-3-yl)oxy-4-[5-[(2-oxopiperazin-1-yl)methyl]pyridin-2-yl]benzonitrile] | > 1000
4 | Cn1nc(C2CC2)cc1Oc1cc(C#N)ccc1-c1ccc(CN2CCNCC2)cn1 [compound 779, 3-(5-cyclopropyl-2-methylpyrazol-3-yl)oxy-4-[5-(piperazin-1-ylmethyl)pyridin-2-yl]benzonitrile] | > 1000
5 | Cn1nc(C2CC2)cc1Oc1cc(C#N)ccc1-c1ccc(C(=O)N2CCNCC2)cn1 [compound 780, 3-(5-cyclopropyl-2-methylpyrazol-3-yl)oxy-4-[5-(piperazine-1-carbonyl)pyridin-2-yl]benzonitrile] | > 1000
6 | Cn1nc(C2CC2)cc1Oc1cc(C#N)ccc1-c1ccc(NC(=O)C2CCNCC2)cn1 [compound 781, N-[6-[4-cyano-2-(5-cyclopropyl-2-methylpyrazol-3-yl)oxyphenyl]pyridin-3-yl]piperidine-4-carboxamide] | > 1000
7 | CN(C(=O)C1CCNCC1)c1ccc(-c2ccc(C#N)cc2Oc2cc(C3CC3)nn2C)nc1 [compound 782, N-[6-[4-cyano-2-(5-cyclopropyl-2-methylpyrazol-3-yl)oxyphenyl]pyridin-3-yl]-N-methylpiperidine-4-carboxamide] | > 1000
8 | Cn1nc(C2CC2)cc1Oc1cc(C#N)ccc1-c1ccc(CC(=O)N2CCNCC2)cn1 [compound 783, 3-(5-cyclopropyl-2-methylpyrazol-3-yl)oxy-4-[5-(2-oxo-2-piperazin-1-ylethyl)pyridin-2-yl]benzonitrile] | > 1000
9 | CN(C)CCOc1ccc(-c2ccc(C#N)cc2Oc2cc(C3CC3)nn2C)nn1 [compound 784, 3-(5-cyclopropyl-2-methylpyrazol-3-yl)oxy-4-[6-[2-(dimethylamino)ethoxy]pyridazin-3-yl]benzonitrile] | > 1000
10 | N#Cc1ccc(-c2ccc(CCN)cc2)c(Oc2sc(N3CCCCC3)nc2C(F)(F)F)c1 [compound 785, 4-[4-(2-aminoethyl)phenyl]-3-[[2-piperidin-1-yl-4(trifluoromethyl)-1,3-thiazol-5-yl]oxy]benzonitrile] | 10 to 1000
11 | CN(CC(F)F)c1cc(Oc2cc(C#N)ccc2-c2ncc(CCN)cn2)n(C)n1 [compound 786, 4-[5-(2-aminoethyl)pyrimidin-2-yl]-3-[5-[2,2-difluoroethyl(methyl)amino]-2-methylpyrazol-3-yl]oxybenzonitrile] | < 10
12 | CN(CC(F)(F)F)c1cc(Oc2cc(C#N)ccc2-c2ncc(CCN)cn2)n(C)n1 [compound 787, 4-[5-(2-aminoethyl)pyrimidin-2-yl]-3-[2-methyl-5-[methyl(2,2,2-trifluoroethyl)amino]pyrazol-3-yl]oxybenzonitrile] | < 10
13 | Cc1nc(Oc2cc(C#N)ccc2-c2ncc(CN)cn2)cc(OC2CCC2)n1 [compound 788, 4-[5-(aminomethyl)pyrimidin-2-yl]-3-(6-cyclobutyloxy-2-methylpyrimidin-4-yl)oxybenzonitrile] | > 1000
14 | Cc1nc(Oc2cc(C#N)ccc2-c2ncc(CN)cn2)cc(N2CCC2)n1 [compound 789, 4-[5-(aminomethyl)pyrimidin-2-yl]-3-[6-(azetidin-1-yl)-2-methylpyrimidin-4-yl]oxybenzonitrile] | 10 to 1000
15 | CCN(C)c1cc(Oc2cc(C#N)ccc2-c2ncc(CN)cn2)nc(C)n1 [compound 790, 4-[5-(aminomethyl)pyrimidin-2-yl]-3-[6-[ethyl(methyl)amino]-2-methylpyrimidin-4-yl]oxybenzonitrile] | 10 to 1000
16 | CCN(CC)c1cc(Oc2cc(C#N)ccc2-c2ncc(CN)cn2)nc(C)n1 [compound 791, 4-[5-(aminomethyl)pyrimidin-2-yl]-3-[6-(diethylamino)-2-methylpyrimidin-4-yl]oxybenzonitrile] | 10 to 1000

Row | SMILES | IC50 [nM]
17 | Cc1nc(Oc2cc(C#N)ccc2-c2ncc(CN)cn2)cc(N(C)C(C)C)n1 [compound 792, 4-[5-(aminomethyl)pyrimidin-2-yl]-3-[2-methyl-6-[methyl(propan-2-yl)amino]pyrimidin-4-yl]oxybenzonitrile] | 10 to 1000
18 | Cc1nc(Oc2cc(C#N)ccc2-c2ncc(CN)cn2)cc(N2CC(F)C2)n1 [compound 793, 4-[5-(aminomethyl)pyrimidin-2-yl]-3-[6-(3-fluoroazetidin-1-yl)-2-methylpyrimidin-4-yl]oxybenzonitrile] | > 1000
19 | Cc1nc(Oc2cc(C#N)ccc2-c2ncc(CN)cn2)cc(N2CCC[C@H]2C)n1 [compound 794, 4-[5-(aminomethyl)pyrimidin-2-yl]-3-[2-methyl-6-[(2R)-2-methylpyrrolidin-1-yl]pyrimidin-4-yl]oxybenzonitrile] | 10 to 1000
20 | Cc1nc(Oc2cc(C#N)ccc2-c2ncc(CN)cn2)cc(N2CCC[C@@H]2C)n1 [compound 795, 4-[5-(aminomethyl)pyrimidin-2-yl]-3-[2-methyl-6-[(2S)-2-methylpyrrolidin-1-yl]pyrimidin-4-yl]oxybenzonitrile] | < 10
21 | Cc1nc(Oc2cc(C#N)ccc2-c2ncc(CN)cn2)cc(N(C)CC2CC2)n1 [compound 796, 4-[5-(aminomethyl)pyrimidin-2-yl]-3-[6-[cyclopropylmethyl(methyl)amino]-2-methylpyrimidin-4-yl]oxybenzonitrile] | 10 to 1000
22 | COCCN(C)c1cc(Oc2cc(C#N)ccc2-c2ncc(CN)cn2)nc(C)n1 [compound 797, 4-[5-(aminomethyl)pyrimidin-2-yl]-3-[6-[2-methoxyethyl(methyl)amino]-2-methylpyrimidin-4-yl]oxybenzonitrile] | > 1000
23 | COCCN(C)c1cc(Oc2cc(C#N)ccc2-c2ncc(CN)cn2)n(C)n1 [compound 798, 4-[5-(aminomethyl)pyrimidin-2-yl]-3-[5-[2-methoxyethyl(methyl)amino]-2-methylpyrazol-3-yl]oxybenzonitrile] | 10 to 1000
24 | COCCN(C)c1cc(Oc2cc(C#N)ccc2-c2ccc(CN)cn2)n(C)n1 [compound 799, 4-[5-(aminomethyl)pyridin-2-yl]-3-[5-[2-methoxyethyl(methyl)amino]-2-methylpyrazol-3-yl]oxybenzonitrile] | < 10
25 | COCCCN(C)c1cc(Oc2cc(C#N)ccc2-c2ncc(CCN)cn2)n(C)n1 [compound 800, 4-[5-(2-aminoethyl)pyrimidin-2-yl]-3-[5-[3-methoxypropyl(methyl)amino]-2-methylpyrazol-3-yl]oxybenzonitrile] | 10 to 1000
26 | Cc1nn(CC(C)C)cc1Oc1cc(C#N)ccc1-c1ncc(CCN)cn1 [compound 801, 4-[5-(2-aminoethyl)pyrimidin-2-yl]-3-[3-methyl-1-(2-methylpropyl)pyrazol-4-yl]oxybenzonitrile] | < 10
27 | Cc1nn(CC(C)C)cc1Oc1cc(C#N)ccc1-c1ncc(CN)cn1 [compound 802, 4-[5-(aminomethyl)pyrimidin-2-yl]-3-[3-methyl-1-(2-methylpropyl)pyrazol-4-yl]oxybenzonitrile] | < 10
28 | Cc1nn(C(C)C)cc1Oc1cc(C#N)ccc1-c1ncc(CCN)cn1 [compound 803, 4-[5-(2-aminoethyl)pyrimidin-2-yl]-3-(3-methyl-1-propan-2-ylpyrazol-4-yl)oxybenzonitrile] | < 10
29 | Cc1c(Oc2cc(C#N)ccc2-c2ncc(CCN)cn2)cnn1CC(C)C [compound 804, 4-[5-(2-aminoethyl)pyrimidin-2-yl]-3-[5-methyl-1-(2-methylpropyl)pyrazol-4-yl]oxybenzonitrile] | 10 to 1000
30 | Cc1c(Oc2cc(C#N)ccc2-c2ncc(CN)cn2)cnn1CC(C)C [compound 805, 4-[5-(aminomethyl)pyrimidin-2-yl]-3-[5-methyl-1-(2-methylpropyl)pyrazol-4-yl]oxybenzonitrile] | 10 to 1000
31 | Cc1c(Oc2cc(C#N)ccc2-c2ncc(CCN)cn2)cnn1C(C)C [compound 806, 4-[5-(2-aminoethyl)pyrimidin-2-yl]-3-(5-methyl-1-propan-2-ylpyrazol-4-yl)oxybenzonitrile] | 10 to 1000
